From patent US20110112014A1 (priority 2008, published 2011)
Entries after “also recorded” stand apart in the source; their conditions may differ.

How the values were obtained:
[1] = Hydration effect of glycerol solutions by concentration; type: in vivo, human; settings: also printed as 18 g/l
[2] = large doses; cited from earlier work
[3] = Blood glucose concentration after 2 l of beverage in overnight-fasted male subjects; type: in vivo, human; settings: 8 fasting male subjects; 2 l consumed between -120 and -40 min; FIG. 2
Description: 2 l of each beverage were consumed between −120 and −40 min.
After an overnight fast, each subject consumed 2 l of one solution (between −120 min and −40 min in FIG. 1). All subjects had to ingest all types of solution, however in random order. Simultaneously, blood samples were taken and analyzed for plasma glucose and haemoglobin concentration as well as haematocrit. RER measurements confirmed that all subjects were in a fasting state.

[4] = cited from earlier work

SMILES: OCC(O)CO [glycerol, propane-1,2,3-triol]
- Concentration at which appreciable hydration effects are seen [1]: above 0.2 mol/l
- Toxicity [2]: non-toxic
- Blood glucose concentration [3]: does not increase blood glucose levels; also recorded: remained unaffected
- Hepatic glucose production ([4]; compared with fasting control conditions without exogenous glycerol load): does not increase hepatic glucose production
- Plasma glucose concentrations ([4]; healthy fasting subjects, glycerol supplementation): does not increase plasma glucose concentrations
